Reference: paper PMC8162405

Assay: Double amide coupling of bis-quinoline diacid with diamine (bis-indole diamine 5, or 1,5-pentanediamine for the precursor of 17); TCFH (4 equiv), N-methylimidazole (8 equiv); diamine (ca. 1.1-1.2 equiv, 6 mM in DMF) added at 20 uL/min to the activated diacid; intermolecular amide first, then intramolecular amide closure
Settings: the molecule shown is the open-chain precursor, 2.0 mM

CC(C)(C)OC(=O)N(CC(=O)Nc1ccc2ncc(C(=O)O)cc2c1)CC(=O)Nc1ccc2ncc(C(=O)Nc3ccc4[nH]cc(Cc5c[nH]c6ccc(N)cc56)c4c3)cc2c1 [13a1 (from 12a1 + 5)]
ring closure, isolated yield (30-membered ring): 23%

Nc1ccc2[nH]cc(Cc3c[nH]c4ccc(NC(=O)c5cnc6ccc(NC(=O)CCCCC(=O)Nc7ccc8ncc(C(=O)O)cc8c7)cc6c5)cc34)c2c1 [13a2 (from 12a2 + 5)]
ring closure, isolated yield (31-membered ring): 21%

Nc1ccc2[nH]cc(Cc3c[nH]c4ccc(NC(=O)c5cnc6ccc(NC(=O)CCCCCC(=O)Nc7ccc8ncc(C(=O)O)cc8c7)cc6c5)cc34)c2c1 [13a3 (from 12a3 + 5)]
ring closure, isolated yield (32-membered ring): 20%

Nc1ccc2[nH]cc(Cc3c[nH]c4ccc(NC(=O)c5cnc6ccc(NC(=O)CCCCCCC(=O)Nc7ccc8ncc(C(=O)O)cc8c7)cc6c5)cc34)c2c1 [13a4 (from 12a4 + 5)]
ring closure, isolated yield (33-membered ring): 21%

CC(C)(C)OC(=O)N(CCC(=O)Nc1ccc2cc(C(=O)O)cnc2c1)CCC(=O)Nc1ccc2cc(C(=O)Nc3ccc4[nH]cc(Cc5c[nH]c6ccc(N)cc56)c4c3)cnc2c1 [13b1 (from 12b1 + 5)]
ring closure, isolated yield (34-membered ring): 21%

Nc1ccc2[nH]cc(Cc3c[nH]c4ccc(NC(=O)c5cnc6cc(NC(=O)CCCCC(=O)Nc7ccc8cc(C(=O)O)cnc8c7)ccc6c5)cc34)c2c1 [13b2 (from 12b2 + 5)]
ring closure, isolated yield (33-membered ring): 21%

Nc1ccc2[nH]cc(Cc3c[nH]c4ccc(NC(=O)c5cnc6cc(NC(=O)CCCCCC(=O)Nc7ccc8cc(C(=O)O)cnc8c7)ccc6c5)cc34)c2c1 [13b3 (from 12b3 + 5)]
ring closure, isolated yield (34-membered ring): 20%

Nc1ccc2[nH]cc(Cc3c[nH]c4ccc(NC(=O)c5cnc6cc(NC(=O)CCCCCCC(=O)Nc7ccc8cc(C(=O)O)cnc8c7)ccc6c5)cc34)c2c1 [13b4 (from 12b4 + 5)]
ring closure, isolated yield (35-membered ring): 27%

Nc1ccc2[nH]cc(Cc3c[nH]c4ccc(NC(=O)c5cnc6cc(NC(=O)CCCCCCCC(=O)Nc7ccc8cc(C(=O)O)cnc8c7)ccc6c5)cc34)c2c1 [13b5 (from 12b5 + 5)]
ring closure, isolated yield (36-membered ring): 23%

NCCCCCNC(=O)c1cnc2ccc(NC(=O)CCCCC(=O)Nc3ccc4ncc(C(=O)O)cc4c3)cc2c1 [precursor of 17 (from 12a2 + 1,5-pentanediamine)]
ring closure, isolated yield (27-membered ring): 15%
